US20100119479A1, “THERAPEUTIC ANTIVIRAL PEPTIDES” (INTERMUNE, INC., priority 2008, published 2010)

How the values were obtained:
[1] = tested on: HCV sub-genomic replicon, GS4.3 (HuH-7 hepatoma cells); test: Quantitation by ELISA of NPTII in the HCV sub-genomic replicon, GS4.3; type: cell-based; settings: Hepatitis C virus, GS4.3 replicon cells, 72 h incubation
How it was run: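 HuH-7 cells carrying the 1377/NS3-3′ subgenomic replicon were seeded 24 h ahead, then treated in G418-free medium with 3-fold dilutions from 10 μM (1% DMSO, duplicates) for 72 h at 37 °C, 5% CO2. NPTII in lysates was measured by ELISA (TMB, 450 nm). EC50 came from a 4-parameter fit of percent DMSO-control signal.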

[2] = molecular target: T1, full-length NS3/NS4A-2 (HCV NS3 protease) (Hepatitis C virus genotype 1b, UniProt Q9WMX2); test: NS3 Inhibition Assay (NS3-NS4 protease assay, RETS1 substrate); type: biochemical; settings: NS3/NS4A-2 protease
T1 construct: Recombinant E. coli or Baculovirus full-length NS3; host or cells: E. coli or baculovirus (BV) expression
How it was run: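 Full-length NS3 (E. coli 2 nM or baculovirus 3 nM) precomplexed with excess NS4A-2, preincubated 10 min at room temperature with compound (top 50 μM). Then 2 μM RETS1 FRET substrate added, fluorescence (ex 335/em 495 nm) read kinetically for 30 min. IC50 by 4-parameter fit, converted to Ki using Km 2.03 μM (E. coli) or 1.74 μM (BV).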

T1 sequence (Q9WMX2 1027-1657): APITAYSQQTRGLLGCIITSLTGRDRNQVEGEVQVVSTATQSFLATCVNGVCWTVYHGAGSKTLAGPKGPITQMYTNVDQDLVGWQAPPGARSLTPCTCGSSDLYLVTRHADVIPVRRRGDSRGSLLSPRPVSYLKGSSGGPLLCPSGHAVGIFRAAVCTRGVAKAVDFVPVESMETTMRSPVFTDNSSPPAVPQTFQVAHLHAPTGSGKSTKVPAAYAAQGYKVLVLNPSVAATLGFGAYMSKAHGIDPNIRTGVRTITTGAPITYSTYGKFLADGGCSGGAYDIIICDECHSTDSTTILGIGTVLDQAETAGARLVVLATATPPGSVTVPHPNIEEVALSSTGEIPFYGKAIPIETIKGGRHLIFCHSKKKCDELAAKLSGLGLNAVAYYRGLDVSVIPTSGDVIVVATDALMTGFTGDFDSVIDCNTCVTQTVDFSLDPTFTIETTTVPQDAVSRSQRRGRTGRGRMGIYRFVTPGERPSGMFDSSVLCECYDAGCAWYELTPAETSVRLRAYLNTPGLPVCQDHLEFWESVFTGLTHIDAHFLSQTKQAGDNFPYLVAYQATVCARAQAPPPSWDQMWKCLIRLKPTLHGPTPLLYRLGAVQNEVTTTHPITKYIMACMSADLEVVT
T1 sequence (Q9WMX2 1658-1711): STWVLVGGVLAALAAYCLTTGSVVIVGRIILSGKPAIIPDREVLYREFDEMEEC

SMILES | EC50 [1] [µM] | IC50 [2] [µM]
CC[C@@H]1C[C@]1(NC(=O)[C@@H]1C[C@@H](OC(=O)N2Cc3cccc(F)c3C2)CN1C(=O)[C@@H](Nc1ccc(C(=O)O)cc1)C(C)(C)C)C(=O)NS(=O)(=O)C1CC1 [Compound 3] | > 1 | < 0.1
CC[C@@H]1C[C@]1(NC(=O)[C@@H]1C[C@@H](OC(=O)N2Cc3cccc(F)c3C2)CN1C(=O)[C@@H](Nc1ccc(C(=O)N2CCOCC2)cc1)C(C)(C)C)C(=O)NS(=O)(=O)C1CC1 [Compound 11] | > 1 | < 0.1
CC[C@@H]1C[C@]1(NC(=O)[C@@H]1C[C@@H](OC(=O)N2Cc3cccc(Cl)c3C2)CN1C(=O)[C@@H](Nc1cc(F)cc(C(F)(F)F)c1)C(C)(C)C)C(=O)NS(=O)(=O)C1(C)CC1 [Compound 283] | < 0.1 | < 0.1
CC(C)(C)[C@H](Nc1cccc(OC(F)(F)F)c1)C(=O)N1C[C@H](OC(=O)N2Cc3cccc(Cl)c3C2)C[C@H]1C(=O)N[C@]1(C(=O)NS(=O)(=O)C2(C)CC2)C[C@H]1C1CC1 [Compound 304] | < 0.1 | < 0.1
CC[C@@H]1C[C@]1(NC(=O)[C@@H]1C[C@@H](Oc2cc(-c3nc(C(C)C)cs3)nc3c(C)c(OC)ccc23)CN1C(=O)[C@@H](Nc1ccc(F)c(C(F)(F)F)c1)C(C)(C)C)C(=O)NS(=O)(=O)C1(C)CC1 [Compound 301] | < 0.1 | < 0.1
CC(C)(C)[C@H](Nc1cc(F)cc(C(F)(F)F)c1)C(=O)N1C[C@H](OC(=O)N2Cc3cccc(Cl)c3C2)C[C@H]1C(=O)N[C@]1(C(=O)NS(=O)(=O)C2CC2)C[C@H]1C1CC1 [Compound 292] | < 0.1 | < 0.1
C=C[C@@H]1C[C@]1(NC(=O)[C@@H]1C[C@@H](Oc2cc(-c3nc(C(C)C)cs3)nc3c(C)c(OC)ccc23)CN1C(=O)[C@@H](Nc1cc(F)cc(C(F)(F)F)c1)C(C)(C)C)C(=O)NS(=O)(=O)C1(C)CC1 [Compound 334] | < 0.1 | < 0.1
CC[C@@H]1C[C@]1(NC(=O)[C@@H]1C[C@@H](OC(=O)N2Cc3cccc(F)c3C2)CN1C(=O)[C@@H](Nc1cccc(C(=O)N2CCNCC2)c1)C(C)(C)C)C(=O)NS(=O)(=O)C1CC1 [Compound 9] | > 1 | < 0.1
C=C[C@@H]1C[C@]1(NC(=O)[C@@H]1C[C@@H](OC(=O)N2Cc3cccc(F)c3C2)CN1C(=O)[C@@H](Nc1cc(F)cc(C(F)(F)F)c1)C(C)(C)C)C(=O)NS(=O)(=O)C1(C)CC1 [Compound 288] | < 0.1 | < 0.1
C=C[C@@H]1C[C@]1(NC(=O)[C@@H]1C[C@@H](Oc2cc(-c3nc(C(C)C)cs3)nc3c(C)c(OC)ccc23)CN1C(=O)[C@@H](Nc1ccc(F)c(C(F)(F)F)c1)C(C)(C)C)C(=O)NS(=O)(=O)C1CC1 [Compound 306] | < 0.1 | < 0.1
C=C[C@@H]1C[C@]1(NC(=O)[C@@H]1C[C@@H](Oc2nccc3ccccc23)CN1C(=O)[C@@H](Nc1cc(F)cc(C(F)(F)F)c1)C(C)(C)C)C(=O)NS(=O)(=O)C1(C)CC1 [Compound 287] | < 0.1 | < 0.1
CC[C@@H]1CC1(NC(=O)[C@@H]1C[C@@H](OC(=O)N2Cc3cccc(Cl)c3C2)CN1C(=O)[C@@H](Nc1cccnc1)C(C)(C)C)C(=O)NS(=O)(=O)C1CC1 (stereo partly drawn) [Compound 1] | < 0.1 | < 0.1
CC[C@@H]1C[C@]1(NC(=O)[C@@H]1C[C@@H](OC(=O)N2Cc3cccc(F)c3C2)CN1C(=O)[C@@H](Nc1ccc(S(=O)(=O)N2CCNCC2)cc1)C(C)(C)C)C(=O)NS(=O)(=O)C1CC1 [Compound 17] | > 1 | < 0.1
CC[C@@H]1C[C@]1(NC(=O)[C@@H]1CC(Oc2cc(-c3nc(C(C)C)cs3)nc3c(C)c(OC)ccc23)CN1C(=O)[C@@H](Nc1cccc(C(F)(F)F)c1)C(C)(C)C)C(=O)NS(=O)(=O)C1CC1 (stereo partly drawn) [Compound 335] | < 0.1 | < 0.1
CC[C@@H]1C[C@]1(NC(=O)[C@@H]1C[C@@H](Oc2cc(-c3nc(C(C)C)cs3)nc3c(C)c(OC)ccc23)CN1C(=O)[C@@H](Nc1ccccc1)C(C)(C)C)C(=O)NS(=O)(=O)C1CC1 [Compound 352] | < 0.1 | < 0.1
